Experimental data: patent publication US20240269139A1, “COMPOUNDS FOR TARGETED PROTEIN DEGRADATION OF KINASES” (DANA-FARBER CANCER INSTITUTE, INC., priority 2020, published 2024)
Where two headings read alike, the source gives them in different places.

How the values were obtained:
Format in all cases: cell-based
[1] = target: protein kinases (human kinome) (Homo sapiens, UniProt Q9NSY1); details: BMP2K Q9NSY1
[2] = target: protein kinases (human kinome) (Homo sapiens, UniProt Q15208); details: for logFC: STK38 (Q15208)
[3] = target: T1, protein kinases (human kinome) (Homo sapiens, UniProt P11387); details: TOP1 P11387
T1 sequence (P11387 1-765): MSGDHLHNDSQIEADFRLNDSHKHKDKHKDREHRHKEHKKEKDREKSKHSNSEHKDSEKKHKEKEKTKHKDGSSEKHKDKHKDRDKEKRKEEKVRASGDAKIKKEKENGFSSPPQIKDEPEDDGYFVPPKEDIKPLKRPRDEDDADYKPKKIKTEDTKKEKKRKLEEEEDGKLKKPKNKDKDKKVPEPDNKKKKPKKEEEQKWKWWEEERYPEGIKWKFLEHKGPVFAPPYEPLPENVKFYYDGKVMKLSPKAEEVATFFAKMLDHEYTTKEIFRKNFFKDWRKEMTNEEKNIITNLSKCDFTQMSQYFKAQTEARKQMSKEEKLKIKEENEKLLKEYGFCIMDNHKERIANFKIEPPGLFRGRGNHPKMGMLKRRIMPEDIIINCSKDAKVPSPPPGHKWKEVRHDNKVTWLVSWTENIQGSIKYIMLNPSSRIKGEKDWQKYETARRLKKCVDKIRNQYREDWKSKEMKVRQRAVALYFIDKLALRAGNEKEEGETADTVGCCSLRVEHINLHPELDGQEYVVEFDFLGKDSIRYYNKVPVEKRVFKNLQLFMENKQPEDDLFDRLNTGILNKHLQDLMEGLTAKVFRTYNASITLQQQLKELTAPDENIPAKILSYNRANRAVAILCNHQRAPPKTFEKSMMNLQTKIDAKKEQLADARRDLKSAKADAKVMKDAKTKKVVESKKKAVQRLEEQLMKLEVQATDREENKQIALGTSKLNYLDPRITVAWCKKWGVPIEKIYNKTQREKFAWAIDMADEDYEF

[4] = target: protein kinases (human kinome) (Homo sapiens, UniProt P00519)
[5] = target: T2, protein kinases (human kinome) (Homo sapiens, UniProt P29320)
T2 sequence (P29320 21-983): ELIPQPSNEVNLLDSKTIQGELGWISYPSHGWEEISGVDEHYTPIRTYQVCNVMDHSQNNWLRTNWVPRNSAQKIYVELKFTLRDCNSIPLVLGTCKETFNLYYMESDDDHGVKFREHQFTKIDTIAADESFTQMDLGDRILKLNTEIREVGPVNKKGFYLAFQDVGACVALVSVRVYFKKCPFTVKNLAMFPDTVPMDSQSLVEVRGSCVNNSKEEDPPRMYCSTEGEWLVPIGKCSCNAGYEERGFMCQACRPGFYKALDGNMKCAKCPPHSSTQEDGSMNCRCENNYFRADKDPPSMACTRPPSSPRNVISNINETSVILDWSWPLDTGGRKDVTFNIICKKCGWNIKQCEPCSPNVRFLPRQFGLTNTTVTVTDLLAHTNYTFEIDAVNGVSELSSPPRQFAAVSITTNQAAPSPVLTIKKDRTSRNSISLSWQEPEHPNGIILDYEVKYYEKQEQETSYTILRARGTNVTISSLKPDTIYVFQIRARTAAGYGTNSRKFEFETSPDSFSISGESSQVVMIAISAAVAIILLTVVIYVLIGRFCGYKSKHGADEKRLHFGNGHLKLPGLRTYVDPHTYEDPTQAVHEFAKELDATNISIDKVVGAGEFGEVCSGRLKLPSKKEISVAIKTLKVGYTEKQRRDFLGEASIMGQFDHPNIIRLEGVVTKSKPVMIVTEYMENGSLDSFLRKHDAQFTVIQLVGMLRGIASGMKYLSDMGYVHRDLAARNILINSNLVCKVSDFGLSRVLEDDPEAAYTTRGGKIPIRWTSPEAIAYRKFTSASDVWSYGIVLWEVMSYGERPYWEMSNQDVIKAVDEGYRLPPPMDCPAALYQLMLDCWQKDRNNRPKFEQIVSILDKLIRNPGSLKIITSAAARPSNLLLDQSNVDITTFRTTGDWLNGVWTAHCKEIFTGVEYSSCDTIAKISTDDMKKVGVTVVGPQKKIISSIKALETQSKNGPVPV

Sequence of protein kinases (human kinome) (Homo sapiens, UniProt P00519) (P00519 whole entry): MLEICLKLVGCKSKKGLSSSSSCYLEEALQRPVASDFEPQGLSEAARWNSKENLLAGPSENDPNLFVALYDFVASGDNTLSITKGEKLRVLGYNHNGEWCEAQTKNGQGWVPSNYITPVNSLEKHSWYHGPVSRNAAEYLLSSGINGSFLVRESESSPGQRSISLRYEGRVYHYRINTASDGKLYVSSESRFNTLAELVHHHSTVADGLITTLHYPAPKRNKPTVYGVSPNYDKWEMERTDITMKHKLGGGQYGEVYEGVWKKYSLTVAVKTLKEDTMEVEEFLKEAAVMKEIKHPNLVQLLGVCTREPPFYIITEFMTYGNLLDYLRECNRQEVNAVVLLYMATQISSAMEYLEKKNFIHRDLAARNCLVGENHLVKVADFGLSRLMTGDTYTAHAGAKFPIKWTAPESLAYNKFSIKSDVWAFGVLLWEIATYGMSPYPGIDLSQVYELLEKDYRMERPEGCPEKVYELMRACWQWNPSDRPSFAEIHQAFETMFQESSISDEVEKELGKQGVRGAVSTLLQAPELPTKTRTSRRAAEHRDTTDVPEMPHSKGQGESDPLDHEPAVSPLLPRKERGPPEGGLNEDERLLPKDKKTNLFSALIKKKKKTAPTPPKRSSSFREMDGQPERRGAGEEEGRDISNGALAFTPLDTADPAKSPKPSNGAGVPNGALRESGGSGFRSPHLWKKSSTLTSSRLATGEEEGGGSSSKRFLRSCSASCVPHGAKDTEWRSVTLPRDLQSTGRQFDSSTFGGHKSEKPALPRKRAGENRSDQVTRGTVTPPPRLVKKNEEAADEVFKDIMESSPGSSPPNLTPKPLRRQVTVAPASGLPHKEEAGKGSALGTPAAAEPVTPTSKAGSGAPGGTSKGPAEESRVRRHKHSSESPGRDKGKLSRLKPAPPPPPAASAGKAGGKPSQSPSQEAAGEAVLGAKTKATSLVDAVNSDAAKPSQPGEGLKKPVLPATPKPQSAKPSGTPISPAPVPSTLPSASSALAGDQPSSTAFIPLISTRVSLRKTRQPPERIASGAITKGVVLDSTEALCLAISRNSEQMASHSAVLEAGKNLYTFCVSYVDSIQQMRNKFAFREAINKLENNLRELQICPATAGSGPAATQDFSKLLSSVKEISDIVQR
Sequence of protein kinases (human kinome) (Homo sapiens, UniProt Q9NSY1) (Q9NSY1 whole entry): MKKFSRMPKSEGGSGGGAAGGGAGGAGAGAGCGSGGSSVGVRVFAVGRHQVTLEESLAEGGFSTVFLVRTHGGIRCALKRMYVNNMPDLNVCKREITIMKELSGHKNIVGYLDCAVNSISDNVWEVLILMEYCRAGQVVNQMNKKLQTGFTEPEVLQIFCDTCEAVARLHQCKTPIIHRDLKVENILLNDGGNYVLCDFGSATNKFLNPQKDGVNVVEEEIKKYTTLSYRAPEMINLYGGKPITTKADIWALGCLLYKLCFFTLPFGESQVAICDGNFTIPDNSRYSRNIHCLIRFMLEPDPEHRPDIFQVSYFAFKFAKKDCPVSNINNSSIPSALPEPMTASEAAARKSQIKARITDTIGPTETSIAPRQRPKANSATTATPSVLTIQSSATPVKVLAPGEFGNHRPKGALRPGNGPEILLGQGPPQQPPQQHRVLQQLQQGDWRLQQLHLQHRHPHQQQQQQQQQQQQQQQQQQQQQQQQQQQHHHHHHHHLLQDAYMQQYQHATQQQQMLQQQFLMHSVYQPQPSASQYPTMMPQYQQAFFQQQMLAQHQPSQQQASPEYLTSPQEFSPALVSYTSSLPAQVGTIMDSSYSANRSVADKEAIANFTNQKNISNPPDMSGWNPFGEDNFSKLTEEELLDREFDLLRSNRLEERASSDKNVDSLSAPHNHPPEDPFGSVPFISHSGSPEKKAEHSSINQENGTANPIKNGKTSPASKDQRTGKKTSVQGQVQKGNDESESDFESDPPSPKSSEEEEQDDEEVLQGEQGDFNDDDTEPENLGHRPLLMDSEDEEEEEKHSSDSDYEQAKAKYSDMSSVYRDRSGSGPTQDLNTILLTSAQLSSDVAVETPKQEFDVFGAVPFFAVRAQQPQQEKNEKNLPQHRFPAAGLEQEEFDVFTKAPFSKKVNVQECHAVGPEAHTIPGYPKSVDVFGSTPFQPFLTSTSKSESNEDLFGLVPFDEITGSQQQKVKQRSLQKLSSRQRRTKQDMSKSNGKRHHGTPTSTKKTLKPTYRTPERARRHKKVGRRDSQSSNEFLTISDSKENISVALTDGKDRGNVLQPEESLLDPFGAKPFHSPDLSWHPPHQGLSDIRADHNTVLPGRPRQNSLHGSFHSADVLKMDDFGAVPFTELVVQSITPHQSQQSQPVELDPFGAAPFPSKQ
Sequence of protein kinases (human kinome) (Homo sapiens, UniProt Q15208) (Q15208 whole entry): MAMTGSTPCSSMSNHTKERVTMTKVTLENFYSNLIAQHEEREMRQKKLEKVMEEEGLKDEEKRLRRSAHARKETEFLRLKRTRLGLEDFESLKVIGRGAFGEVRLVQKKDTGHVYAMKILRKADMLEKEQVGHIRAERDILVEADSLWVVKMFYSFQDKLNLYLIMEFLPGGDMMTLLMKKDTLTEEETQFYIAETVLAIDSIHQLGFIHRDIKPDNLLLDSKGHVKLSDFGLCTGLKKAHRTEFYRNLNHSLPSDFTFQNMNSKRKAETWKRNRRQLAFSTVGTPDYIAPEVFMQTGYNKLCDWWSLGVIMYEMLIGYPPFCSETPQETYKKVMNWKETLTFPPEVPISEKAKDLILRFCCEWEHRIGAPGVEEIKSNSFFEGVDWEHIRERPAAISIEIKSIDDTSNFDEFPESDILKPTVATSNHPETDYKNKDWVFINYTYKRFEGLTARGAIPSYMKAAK

With `Cc1cnc(Nc2ccc(N3CCN(CCOCCOCCNC(=O)COc4cccc5c4C(=O)N(C4CCC(=O)NC4=O)C5=O)CC3)cc2)nc1Nc1cccc(S(=O)(=O)NC(C)(C)C)c1` (centres unmarked) [JWG.118] the logFC ([1]; experiment wp071) was −0.3528 and the “logFC BMP2K” value ([1]; experiment wp071) was −0.3528.
`CC(C)S(=O)(=O)c1ccccc1Nc1nc(Nc2ccc(N3CCN(CCOCCOCCC(=O)NCCNc4cccc5c4CN(C4CCC(=O)NC4=O)C5=O)CC3)cc2)ncc1Cl` (centres unmarked) [TL13.97] was tested, and the logFC ([2]; experiment wp137) was −0.3912 and the “logFC of STK38 (Q15208)” value ([2]; experiment wp137) was −0.3912.
For `CC(C)S(=O)(=O)c1ccccc1Nc1nc(Nc2ccc(N3CCN(CCOCCNC(=O)CNc4ccc5c(c4)C(=O)N(C4CCC(=O)NC4=O)C5=O)CC3)cc2)ncc1Cl` (centres unmarked) [SK.3.93], the logFC ([1]; experiment wp016) was −0.4575 and the “logFC BMP2K” value ([1]; experiment wp016) was −0.4575.
In the case of `O=C(COc1cccc2c1C(=O)N(C1CCC(=O)NC1=O)C2=O)NCCCCCCCN1CCc2cc(Nc3ncc(C4CC4)c(NCCCNC(=O)C4CCC4)n3)ccc2C1` (centres unmarked) [BSJ.04.178], the logFC ([1]; experiment wp134) is reported as −0.6929 and the “logFC BMP2K” value ([1]; experiment wp134) is reported as −0.6929.
With `C=CCn1c(=O)c2cnc(Nc3ccc(N4CCN(CCCNc5cccc6c5C(=O)N(C5CCC(=O)NC5=O)C6=O)CC4)cc3)nc2n1-c1cccc(C(C)(C)O)n1` (centres unmarked) [ZNL.02.096] the logFC ([3]; experiment wp056) was −0.3756.
With `CS(=O)(=O)Nc1cccc(-c2csc3cnc(Nc4ccc(N5CCN(CCCCCOc6cccc7c6C(=O)N(C6CCC(=O)NC6=O)C7=O)CC5)cc4)nc23)c1` (centres unmarked) [DB0614, N-(3-(2-((4-(4-(5-((2-(2,6-Dioxopiperidin-3-yl)-1,3-dioxoisoindolin-4-yl)oxy)pentyl)piperazin-1-yl)phenyl)amino)thieno[3,2-d]pyrimidin-7-yl)phenyl)methanesulfonamide] the logFC ([1]; experiment wp045) was −0.3909 and the “logFC BMP2K” value ([1]; experiment wp045) was −0.3909.
In the case of `Cc1cc(Nc2ncc(Br)c(Nc3cccc(F)c3C(N)=O)n2)ccc1S(=O)(=O)NCCOCCOCCOCCOCCNc1cccc2c1C(=O)N(C1CCC(=O)NC1=O)C2=O` (centres unmarked) [TMX.02.174], the logFC ([2]; experiment wp146) is reported as −0.4117 and the “logFC of STK38 (Q15208)” value ([2]; experiment wp146) is reported as −0.4117.
For `Cc1ccc(NC(=O)c2cccc(C(F)(F)F)c2)cc1N1Cc2cnc(Nc3ccc(N4CCN(CCCOc5cccc6c5C(=O)N(C5CCC(=O)NC5=O)C6=O)CC4)nc3)nc2N(C)C1=O` (centres unmarked) [DB0662], the “logFC of ABL1 (P00519)” value ([4]; Experiment wp168) was −0.7617 and the “logFC ABL1 (P00519)” value ([4]; experiment wp168) was −0.7617.
In the case of `CC(C)(C)c1nc(-c2cccc(NS(=O)(=O)c3c(F)cccc3F)c2F)c(-c2ccnc(NCCOCCNC(=O)CCOCCOCCNc3cccc4c3C(=O)N(C3CCC(=O)NC3=O)C4=O)n2)s1` (centres unmarked) [DD.03.106], the logFC ([3]; experiment wp147, 4 uM) is reported as −0.4525.
In the case of `NC(=O)c1c(F)cccc1Nc1nc(Nc2ccc(S(=O)(=O)NCCOCCOCCOCCOCCNc3cccc4c3C(=O)N(C3CCC(=O)NC3=O)C4=O)cc2)ncc1Br` (centres unmarked) [TMX.02.138], the logFC ([2]; experiment wp146) is reported as −0.3476 and the “logFC of STK38 (Q15208)” value ([2]; experiment wp146) is reported as −0.3476.
For `Cc1ccc(NC(=O)c2cccc(C(F)(F)F)c2)cc1N1Cc2cnc(Nc3ccc(N4CCN(Cc5cn(CCCCCOc6cccc7c6C(=O)N(C6CCC(=O)NC6=O)C7=O)nn5)CC4)nc3)nc2N(C)C1=O` (centres unmarked) [DB0646, N-(3-(7-((6-(4-((1-(5-((2-(2,6-Dioxopiperidin-3-yl)-1,3-dioxoisoindolin-4-yl)oxy)pentyl)-1H-1,2,3-triazol-4-yl)methyl)piperazin-1-v)pyridin-3-yl)amino)-1-methyl-2-oxo-1,4-dihydropyrimido[4,5-d]pyrimidin-3(2H)-yl)-4-methylphenyl)-3-(trifluoromethyl)benzamide], the “logFC EPHA3” value ([5]; Accession P29320, experiment wp045, direction down) was −0.5333, the “logFC EPHA3” value ([5]; Accession P29320, experiment wp103, direction down) was −0.3715 and the “logFC EPHA3” value ([5]; Accession P29320, experiment wp107, direction down) was −0.4346. The “logFC EPHA3” value ([5]; Accession P29320, experiment wp117, direction down) was −0.3587, the “logFC EPHA3” value ([5]; Accession P29320, experiment wp152, direction down) was −0.3871 and the “logFC EPHA3” value ([5]; Accession P29320, experiment wp160, 4 hr, direction down) was −0.5814. The “logFC EPHA3” value ([5]; Accession P29320, experiment wp160, 8 hr, direction down) was −0.5528, the “logFC EPHA3” value ([5]; EPHA3 (P29320), experiment wp045) was −0.5333 and the “logFC EPHA3” value ([5]; EPHA3 (P29320), experiment wp103) was −0.3715. The “logFC EPHA3” value ([5]; EPHA3 (P29320), experiment wp107) was −0.4346, the “logFC EPHA3” value ([5]; EPHA3 (P29320), experiment wp117) was −0.3587 and the “logFC EPHA3” value ([5]; EPHA3 (P29320), experiment wp152) was −0.3871. For the same molecule, the “logFC EPHA3” value ([5]; EPHA3 (P29320), experiment wp160, 4 hr) was −0.5814 and the “logFC EPHA3” value ([5]; EPHA3 (P29320), experiment wp160, 8 hr) was −0.5528.
In the case of `Cn1c(=O)c(-c2c(Cl)cccc2Cl)cc2cnc(Nc3ccc(OCCNC(=O)CCCCCCNC(=O)COc4cccc5c4C(=O)N(C4CCC(=O)NC4=O)C5=O)cc3)nc21` (centres unmarked) [SB1.G.192.1], the “logFC EPHA3” value ([5]; Accession P29320, experiment wp071, direction down) is reported as −1.175, the “logFC EPHA3” value ([5]; Accession P29320, experiment wp081, direction down) is reported as −1.027 and the “logFC EPHA3” value ([5]; Accession P29320, experiment wp131, direction down) is reported as −1.318. For the same molecule, the “logFC EPHA3” value ([5]; EPHA3 (P29320), experiment wp071) was −1.175, the “logFC EPHA3” value ([5]; EPHA3 (P29320), experiment wp081) was −1.027 and the “logFC EPHA3” value ([5]; EPHA3 (P29320), experiment wp131) was −1.318.
Molecule `CC(=O)c1c(C)c2cnc(Nc3ccc(N4CCN(CCOCCOCCOCCNC(=O)COc5cccc6c5C(=O)N(C5CCC(=O)NC5=O)C6=O)CC4)cn3)nc2n(C2CCCC2)c1=O` (centres unmarked) [BSJ.03.123] has a logFC ([3]; experiment wp084) of −0.3381.
`Cc1ncsc1-c1ccc([C@H](C)NC(=O)[C@@H]2C[C@@H](O)CN2C(=O)[C@@H](NC(=O)CCCCCN2CCN(c3ccc(Nc4ncc5scc(-c6cccc(NS(C)(=O)=O)c6)c5n4)cc3)CC2)C(C)(C)C)cc1` [RSS0680, (2S,4R)-1-((S)-3,3-Dimethyl-2-(6-(4-(4-((7-(3-(methylsulfonamido)phenyl)thieno[3,2-d]pyrimidin-2-yl)amino)phenyl)piperazin-1-yl)hexanamido)butanoyl)-4-hydroxy-N—((S)-1-(4-(4-methylthiazol-5yl)phenyl)ethyl)pyrrolidine-2-carboxamide] gave a logFC ([3]; experiment wp080) of −0.4687.
For `CC(C)S(=O)(=O)c1ccccc1Nc1nc(Nc2ccc(N3CCN(CCOCCNC(=O)CNc4cccc5c4C(=O)N(C4CCC(=O)NC4=O)C5=O)CC3)cc2)ncc1Cl` (centres unmarked) [SK.3.91], the “logFC ABL1 (P00519)” value ([4]; experiment wp160, 4 hr) was −0.3545, the “logFC of ABL1 (P00519)” value ([4]; experiment wp160, 4 hr) was −0.3545 and the logFC ([1]; experiment wp016) was −0.4706. For the same molecule, the “logFC BMP2K” value ([1]; experiment wp016) was −0.4706, the logFC ([1]; experiment wp105) was −0.4043 and the “logFC BMP2K” value ([1]; experiment wp105) was −0.4043.
In the case of `CC(C)(C)c1nc(-c2cccc(NS(=O)(=O)c3c(F)cccc3F)c2F)c(-c2ccnc(NCCOCCNC(=O)CCOCCOCCNc3cccc4c3CN(C3CCC(=O)NC3=O)C4=O)n2)s1` (centres unmarked) [DD.03.107], the logFC ([3]; experiment wp147, 1 uM) is reported as −0.3823, the logFC ([3]; experiment wp147, 2 uM) is reported as −0.4234 and the logFC ([3]; experiment wp147, 4 uM) is reported as −0.4699.
With `Cc1ccc(NC(=O)c2cccc(C(F)(F)F)c2)cc1N1Cc2cnc(Nc3ccc(N4CCN(CCCCC(=O)N[C@H](C(=O)N5C[C@H](O)C[C@H]5C(=O)N[C@@H](C)c5ccc(-c6scnc6C)cc5)C(C)(C)C)CC4)nc3)nc2N(C)C1=O` [DB1113] the “logFC of ABL1 (P00519)” value ([4]; Experiment wp168) was −1.014, the “logFC ABL1 (P00519)” value ([4]; experiment wp168) was −1.014 and the “logFC EPHA3” value ([5]; Accession P29320, experiment wp168, direction down) was −0.4182. The “logFC EPHA3” value ([5]; EPHA3 (P29320), experiment wp168) was −0.4182.
